According to patent US10045966B2, “Compositions and methods for treating microbial infections” (Vanderbilt Univeristy, priority 2012, dated 2018):
Entries after “also recorded” stand apart in the source; their conditions may differ.

Columns and labels:
[1] = system: intracellular heme; experiment: Intracellular heme quantification; assay type: cell-based, S. aureus; conditions: for Intracellular (endogenous) heme levels: pyridine hemochromogen assay / UPLC-MS
Procedure: (B) Heme levels in triplicate cultures of S. aureus treated with the indicated additive were quantified using the pyridine hemochromogen assay and normalized to the concentration of protein in the whole cell lysates. […] (A and B) Error bars represent one standard deviation from the mean. (C) Exact-mass mass spectrometric analysis was used in conjunction with UPLC to detect and quantify heme in protoplasts from cells treated with 40 μM '882 or vehicle grown in triplicate. Measured heme molecules were referenced to estimated CFUs per pellet, factoring in dilutions. Dead or lysed cells would also contribute to the measurement. […] Samples measured in duplicate or triplicate injections had typical errors of <5% between analytical replicates. Error bars represent the standard deviation and significance was calculated using a two-tailed Student's t-test.
Heme levels were quantified using the pyridine hemochromogen assay and normalized to the concentration of protein in the whole cell lysates.
To directly test if '882 exposure increases heme levels within staphylococci, intracellular heme abundance was measured using two distinct approaches. First, intracellular heme levels were quantified using a commercially available heme quantification kit (BioAssay systems).

[2] = system: S. aureus; assay type: cell-based; conditions: 24 h; for Viable and gentamicin-resistant bacteria, single agent: treatment alone
Procedure: (A) S. aureus wildtype (WT, dashed lines), the menaquinone auxotroph (ΔmenB, dotted lines), and the heme auxotroph hemB::ermC (ΔhemB, solid lines) were grown in triplicate under aerobic (aer, black lines) and anaerobic (ana, gray lines) conditions in the presence of the indicated log of the concentration of '882 (μM). After 18 h the absorbance at 600 nm (OD600) was measured and normalized to vehicle (DMSO) treated bacteria. Curves were fit by nonlinear regression analysis and absolute log IC50 values were calculated in Prism with the top set at 1.0 and the bottom set at 0.15. […] Error bars represent the standard error of the mean. (B) Triplicate cultures of S. aureus were grown in the presence of the indicated additive. […] Shown is the average of three independent experiments. Error bars represent one standard deviation from the mean. (C) S. aureus was grown in the presence of vehicle (DMSO) or 40 μM '882 and coated in serum. Murine PMNs were elicited with casein and harvested from the peritoneum. The ability of neutrophils to kill S. aureus in the presence of '882 was assessed by comparing CFUs recovered from neutrophil-exposed S. aureus to those recovered from identical conditions lacking neutrophils. The mean of at least six independent experiments performed in triplicate are represented by the data; error bars represent standard error of the mean and significance was determined by a two-tailed Student's t-test.
S. aureus SCVs are obligate fermenters that emerge in response to aminoglycoside treatment. […] To test this, S. aureus was grown in the presence of vehicle, gentamicin, '882, or a combination of gentamicin and '882, and the evolution of gentamicin resistance was monitored.

[3] = system: HssRS; experiment: XylE reporter assay (hrtAB promoter-xylE fusion) for HssRS activation; assay type: cell-based, S. aureus; conditions: for HssRS activation in heme auxotroph ΔhemB: S. aureus hemB::ermC (ΔhemB) carrying phrt.xylE; for HssRS activation (XylE reporter activity): S. aureus carrying phrt.xylE
Procedure: (§1) FIGS. 9A-9C describe a high throughput screen that identifies small molecule activators of HssRS. (A) A secondary screen consisting of a XylE reporter assay verified the activity of the top 110 hits from the primary screen, including '882. Triplicate cultures of S. aureus WT and ΔhssR transformed with the hrtAB promoter-xylE fusion-containing plasmid (phrt.xylE) were grown in the presence of the indicated additive and XylE activity was measured. (B) The structure of lead compound VU0038882 (′882). (C) '882 was confirmed as a hit in a tertiary screen that measured the ability of the compound to pre-adapt S. aureus for growth in 20 μM heme. Triplicate cultures of WT S. aureus were grown overnight in medium containing the indicated additive and sub-cultured into medium containing 20 μM heme. Growth was monitored by measuring the optical density at 600 nm (OD600) over time. (A and C) Error bars represent one standard deviation from the mean.
The present inventors designed and conducted a screening assay to identify activators of HssRS. With reference to FIG. 2A, a reporter plasmid containing the luxABCDE operon from Photorhabdus luminescens driven by the hrtAB promoter (phrt.lux) was used to screen 160,000 compounds from the VICB small molecule library with luminescence. With reference to FIG. 2B, 110 of the top hits from the primary screen were confirmed in a secondary screen using a xylE reporter gene driven by the hrtAB promoter (phrt.xylE). […] Activation of HssRS by a sub-toxic concentration of heme protects S. aureus from a subsequent toxic concentration of heme by upregulating HrtAB. The inhibition of growth due to heme toxicity is determined by measuring the optical density of bacterial cultures at 600 nm. In each screen the present inventors identified hits by comparing their activity to that of heme. […] Cultures of wildtype and ΔhssR carrying phrt.xylE were assayed for XylE activity upon '8882 treatment. The screening method designed by the present inventors as able to successfully identify small molecule activators of the S. aureus heme stress response.
Analogs of '882 were divided into two classes, and chemical modifications of both the Western-naphthol ring and the Eastern-furan ring were conducted. Each set was screened against the XylE assay with heme and '882 as standards for comparison. […] Examples of synthesized compounds and their activity classifications are shown above.

[4] = system: Corynebacterium diphtheriae; experiment: Adaptation to heme toxicity, CFU enumeration; assay type: cell-based; conditions: C. diphtheriae, subculture into 15 μM heme, versus non-adapted cultures
[5] = system: Staphylococcus haemolyticus; experiment: Adaptation to heme toxicity, growth curve; assay type: cell-based; conditions: S. haemolyticus, subculture into 30 μM heme, versus non-adapted cultures
[6] = system: S. aureus; experiment: Pre-adaptation for heme toxicity, growth curve analysis; assay type: cell-based; conditions: overnight pre-treatment, subculture into 20 μM heme
Procedure: as §1, with “(A and C) Error bars represent one standard deviation from the mean.” left out
The present inventors designed and conducted a screening assay to identify activators of HssRS. With reference to FIG. 2A, a reporter plasmid containing the luxABCDE operon from Photorhabdus luminescens driven by the hrtAB promoter (phrt.lux) was used to screen 160,000 compounds from the VICB small molecule library with luminescence. […] The inhibition of growth due to heme toxicity is determined by measuring the optical density of bacterial cultures at 600 nm. […]

[7] = system: S. aureus; assay type: cell-based; conditions: for Growth of ΔmenB (cannot respire, solely ferments): S. aureus ΔmenB, aerobic and anaerobic
[8] = system: S. aureus; experiment: Systemic staphylococcal infection in mice, liver CFUs and abscesses; assay type: in vivo; conditions: mice infected intravenously, intraperitoneal treatment, 96 h
Procedure: FIGS. 16A-16D show embodiments of the preset invention reduce S. aureus pathogenesis in vivo. Mice infected retroorbitally with S. aureus were treated intraperitoneally with vehicle (10% Tween 80) or '373. After 96 h mice were sacrificed and (A) CFUs and (B) surface abscesses were enumerated from the livers. Each marker represents an individual mouse. Data were collected from three independent experiments resulting in n=13 for vehicle and n=12 for '373-treated mice once the highest and lowest values were removed from each group. The horizontal line indicates the mean and the error bars represent the standard error of the mean. Statistical significance was determined by a two-tailed Student's t-test. Livers from mice treated with the indicated dose of '373 were harvested 24 h post-infection (1 h after the 2nd treatment), sectioned, and mounted on MALDI target plates (C). (D) Tissue sections were imaged by MALDI-MS/MS for accumulation of a fragment of '373 by MALDI-MS/MS (m/z 255.2→134). Spectra were acquired at 10 microscans per step. 5 laser shots were acquired per pixel and pixels were obtained every 100 μm.

[9] = Liver tissue level by Imaging Mass Spectrometry and HPLC-MS; conditions: HPLC-MS of excised liver, 24 h post-infection
[10] = system: IsdG; experiment: IsdG abundance by immunoblot as reporter of cytoplasmic heme; assay type: cell-based, S. aureus
Procedure: Wild type and ΔhemV S. aureus transformed with isdG driven under the constitutive Igt promoter (pIgt.isdG) were grown in the presence of increasing concentrations of '8882. Whole cell lysates, along with a protein standard, were blotted with anti IsdG polyclonal antisera and IsdG levels were quantified by densitometry.
Second, the intracellular abundance of the heme stabilized protein IsdG was used as a barometer of functional cytoplasmic heme levels (43), i.e., IsdG is a heme stabilized protein that can be used as a reporter for intracellular heme levels. With reference to FIG. 4A, S. aureus ΔisdG and ΔhemB were transformed with a plasmid that constitutively expresses IsdG (plgt.isdG). These strains were grown to stationary phase in the presence of the indicated concentration of '8882 or heme. Whole cell lysates were immunoblotted with anti-IsdG polyclonal antisera and bands were quantified using densitometry.
To determine if the endogenous heme produced as a result of '882 exposure is available for use in cellular processes, cytoplasmic heme availability was measured by quantifying intracellular levels of the cytoplasmic heme oxygenase IsdG. In the absence of exogenous heme, IsdG is rapidly degraded; however, heme binding stabilizes IsdG and reduces its proteolytic degradation. Therefore, the abundance of IsdG reflects the cytoplasmic levels of heme.

[11] = system: C. diphtheriae; experiment: Growth of C. diphtheriae; assay type: cell-based
[12] = system: S. aureus; experiment: Fermentative activity: pH, D-glucose and lactate in culture supernatants; assay type: cell-based; conditions: aerobic cultures
Procedure: FIGS. 12A-12C show examples of the present invention diminish fermentative activity. S. aureus was grown in triplicate under aerobic conditions in the presence of vehicle (black lines) or 40 μM '882 (gray lines). At the indicated time intervals, culture supernatants were sampled and the (A) pH, (B) D-glucose, and (C) D- and L-lactate were quantified. Error bars represent one standard deviation from the mean.
(§2) The effects of '8882 on fermentation was studied. With reference to FIG. 7A, S. aureus was grown in the presence of the indicated concentration of '8882 or cyanide. Growth was monitored over time by measuring the optical density at 600 nm and normalized to vehicle treated S. aureus. With reference to FIG. 7B, the concentration of glucose and lactate was measured in supernatants collected from S. aureus cultures containing vehicle or '8882. With reference to FIG. 7C, S. aureus grown in the presence or absence of '8882 was subjected to nitric oxide stress after 5 hours of growth. With reference to FIG. 7D, S. aureus was incubated with murine neutrophils in media containing either vehicle or '8882. Bacterial viability was determined by enumerating colony forming units on solid media.

[13] = system: S. aureus Newman; experiment: Co-treatment with kanamycin, CFU enumeration after 24 h; assay type: cell-based; conditions: TSB
Procedure: With reference to FIG. 8A, S. aureus Newman was cultured in TSB containing the indicated amount of kanamycin or '8882. After 24 h colony forming units (CFUs) were enumerated on solid medium. The dashed line indicates the limit of detection (LOD) and the asterisk denotes that two of the three replicates were below the LOD. Turning to FIG. 8B, 50 ul of each experimental groups was plated on TSA at a dilution of 1:100 except for the co-treatment group, which was plated undiluted. Two of the three co-treated replicates had no viable colonies.

[14] = system: S. aureus; experiment: Neutrophil killing of S. aureus; assay type: cell-based; conditions: murine PMNs, 40 μM
[15] = system: neutrophils; assay type: cell-based, Murine
[16] = system: S. aureus; experiment: Nitric oxide stress of S. aureus; assay type: cell-based; conditions: simultaneous exposure to NO.
Procedure: as §2

[17] = Chemical stability, rule of five and solubility; conditions: free base and trifluoroacetate salt

O=CC[C@@H](O)[C@H](O)[C@H](O)CO [Compound 2dG, 2-deoxyglucose, reference compound]
Intracellular (endogenous) heme levels [1]: reduces endogenous heme levels

gentamicin [reference compound]
Viable and gentamicin-resistant bacteria, single agent [2]: became resistant to gentamicin

C=CC1=C(C)c2cc3[n-]c(cc4[n-]c(cc5nc(cc1n2)C(C)=C5C=C)c(C)c4CCC(=O)O)c(CCC(=O)O)c3C.[Fe+2] [heme, reference compound]
HssRS activation in heme auxotroph ΔhemB [3]: activates HssRS in ΔhemB | Survival in heme after pre-treatment [4]: improved survival in heme | Survival in heme after pre-treatment [5]: improved survival in heme

Oc1ccccc1-c1cc(-c2ccccc2F)[nH]n1 ['373]
HssRS activation (XylE reporter activity) [3]: activates HssRS | Pre-adaptation of S. aureus for heme toxicity [6]: pre-adapt S. aureus for heme toxicity | Growth of ΔmenB (cannot respire, solely ferments) [7]: inhibits the growth of S. aureus ΔmenB, although to a lesser extent than '882 | Decrease in CFUs recovered from the livers versus vehicle [8]: 1 log | Number of liver abscesses [8]: significant reduction in the number of liver abscesses | Liver tissue level versus dose [9]: linear relationship between tissue level and dose

Oc1c(-c2cc(-c3ccco3)[nH]n2)ccc2ccccc12 ['882]
HssRS activation (XylE reporter activity) [3]: activates the hrtAB promoter in a dose-responsive manner | HssRS activation (XylE reporter activity) ([3]; listed as '8882): most potent activator of HssRS | HssRS activation in heme auxotroph ΔhemB [3]: does not activate HssRS in ΔhemB | Pre-adaptation of S. aureus for heme toxicity [6]: pre-adapts S. aureus for heme toxicity | Survival in heme after pre-treatment [4]: improved survival in heme | Survival in heme after pre-treatment [5]: improved survival in heme | Increase of intracellular heme versus non-exposed bacteria ([1]; commercial heme quantification kit (BioAssay systems)): approximately 10% | Intracellular (endogenous) heme levels [1]: increase in a dose-responsive manner | Intracellular abundance of IsdG ([10]; S. aureus constitutively expressing IsdG): increases the abundance of IsdG in a concentration-dependent fashion | Stabilization of IsdG in ΔhemB ([10]; S. aureus ΔhemB): not stabilized | Bacteriostatic or bacteriocidal (CFU input versus output) [7]: bacteriostatic to fermentatively growing staphylococci | Concentration that halts S. aureus growth [7]: less than 5 μM | Growth of ΔhemB (SCV deficient in heme biosynthesis) ([7]; S. aureus ΔhemB): sensitive to '882 | Growth of ΔmenB (cannot respire, solely ferments) [7]: more susceptible to '882 toxicity than wildtype; also recorded: bacteriostatic | Growth of wildtype S. aureus grown anaerobically ([7]; anaerobic): growth was dramatically reduced | Growth of S. aureus in combination with potassium cyanide (KCN) ([7]; combined with KCN, aerobic): growth is inhibited, even under aerobic conditions | Growth of C. diphtheriae [11]: inhibits the growth of C. diphtheriae | Glycolytic / fermentative activity (acidification, D-glucose consumption, lactate production) [12]: reduced glycolytic activity | Glycolytic / fermentative activity (acidification, D-glucose consumption, lactate production) ([12]; listed as '8882): reduces the ability of S. aureus to ferment | Gentamicin-resistant colonies, combination with gentamicin ([2]; combined with gentamicin): eliminated all detectable gentamicin-resistant colonies | Reduction in bacterial viability, combination with gentamicin ([2]; combined with gentamicin): 5 log | Viable and gentamicin-resistant bacteria, single agent [2]: did not affect the number of viable or gentamicin-resistant bacteria | Antibiotic efficacy on co-treatment with kanamycin [13]: improves antibiotic efficacy in vitro | Neutrophil-dependent killing of S. aureus [14]: improves neutrophil-dependent killing of S. aureus | Neutrophil viability [15]: does not overtly affect neutrophil viability | Antibacterial effect of simultaneous exposure with nitric oxide (NO.) [16]: more antibacterial than treatment with either molecule alone | Chemical stability [17]: good chemical stability | Rule of five violations [17]: no rule of five violations | Solubility ([17]; DMSO and aqueous solution): good solubility in DMSO and aqueous solution
